In ChEMBL document CHEMBL6096738, “Optimization of Single Relaxin B-Chain Peptide Leads to the Identification of R2R01, a Potent, Long-Acting RXFP1 Agonist for Cardiovascular and Renal Diseases” (J Med Chem, 2025):
Starred links: 1 amine or outer side, 2 acyl side, 3 side chain; linkers in the order of their positions; H or OH if unused. Non-standard residues stand in square brackets, D forms with d. Residues, ends and D or L forms follow the SMILES beside them. Groups on a side chain read outwards from the residue. *: point of attachment. PEG12 = NCCOCCOCCOCCOCCOCCOCCOCCOCCOCCOCCOCCOCCC(=O)O; γGlu = O=C(O)[C@H](CCC(=O)[*:2])N[*:1]; Stearoyl = CCCCCCCCCCCCCCCCCC(=O)*; Palmitoyl = CCCCCCCCCCCCCCCC(=O)*; Nle = CCCC[C@H](N)C(=O)O; AEEA = NCCOCCOCC(=O)O; Aib = CC(C)(N)C(=O)O

How the values were obtained:
[1] = Induction of immune response in human CD4+ T cells assessed as increase in auto reactive T cells at 3 uM preincubated with monocyte-derived immature dendritic cells followed by T cell addition and further stimulated on day 7 and 14 with autologous dendritic cells and measured after 5 days post last stimulation by IFNgamma-Elispot analysis; format: toxicity, cell-based; conditions: 120 h
[2] = target: T1, Relaxin receptor 1 (Homo sapiens, UniProt Q9HBX9); test: Agonist activity at human RXFP1 expressed in human OVCAR-5 cells assessed as intracellular cAMP accumulation incubated for 30 mins by HTRF assay; format: functional, cell-based
T1 sequence (Q9HBX9 whole entry): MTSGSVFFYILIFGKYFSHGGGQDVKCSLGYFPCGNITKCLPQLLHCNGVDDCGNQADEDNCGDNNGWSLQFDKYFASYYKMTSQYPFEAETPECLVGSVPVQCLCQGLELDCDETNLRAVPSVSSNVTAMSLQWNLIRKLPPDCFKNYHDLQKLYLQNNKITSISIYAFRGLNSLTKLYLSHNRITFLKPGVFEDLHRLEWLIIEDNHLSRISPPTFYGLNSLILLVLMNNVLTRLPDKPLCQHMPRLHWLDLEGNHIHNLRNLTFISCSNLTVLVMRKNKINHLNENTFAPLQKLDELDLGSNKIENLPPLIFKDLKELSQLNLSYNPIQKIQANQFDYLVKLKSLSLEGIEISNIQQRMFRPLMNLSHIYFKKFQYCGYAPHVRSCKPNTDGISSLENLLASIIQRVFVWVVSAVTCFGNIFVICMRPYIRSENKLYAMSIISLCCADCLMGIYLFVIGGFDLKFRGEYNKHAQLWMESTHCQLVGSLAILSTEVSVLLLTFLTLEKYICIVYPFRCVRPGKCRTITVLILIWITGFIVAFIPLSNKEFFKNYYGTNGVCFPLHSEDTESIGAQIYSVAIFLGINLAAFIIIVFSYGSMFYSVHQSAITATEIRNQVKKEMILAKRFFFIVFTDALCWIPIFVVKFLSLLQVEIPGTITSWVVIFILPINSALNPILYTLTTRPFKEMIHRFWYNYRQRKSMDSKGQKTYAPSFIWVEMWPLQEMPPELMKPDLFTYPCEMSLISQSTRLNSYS

[3] = target: T2, Relaxin receptor 1 (Homo sapiens) (UniProt Q9HBX9); test: Agonist activity at human RXFP1 expressed in human OVCAR-5 cells assessed as intracellular cAMP accumulation by measuring maximal efficacy incubated for 30 mins by HTRF assay relative to control; format: functional, cell-based; conditions: filed as agonist
T2 sequence (whole entry): T1 sequence (Q9HBX9 whole entry)

[4] = target: T1, Relaxin receptor 1; test: Agonist activity at human RXFP1 expressed in 2%HSA treated human OVCAR-5 cells assessed as intracellular cAMP accumulation incubated for 30 mins with 2% HSA pretreated compound by HTRF assay; format: functional, cell-based
[5] = target: T2, Relaxin receptor 1 (Homo sapiens); test: Agonist activity at human RXFP1 expressed in 2%HSA treated human OVCAR-5 cells assessed as intracellular cAMP accumulation by measuring maximal efficacy incubated for 30 mins with 2% HSA pretreated compound by HTRF assay relative to control; format: functional, cell-based; conditions: filed as agonist
[6] = Half-life in male Sprague-Dawley rat at 1 mg/kg, iv measured after 198 hrs by LC-HRMS analysis; format: ADME, organism-based; conditions: in vivo
[7] = Drug metabolism in male Sprague-Dawley rat assessed as fatty acid chain oxidation mediated M+16 metabolite formation by measuring metabolite to parent compound AUC ratio at 3 mg/kg, sc measured after 198 hrs by LC-HRMS analysis; format: ADME, organism-based; conditions: in vivo
[8] = Half-life in male Beagle dog at 1 mg/kg, iv measured after 198 hrs by LC-HRMS analysis; format: ADME, organism-based, Canis lupus familiaris; conditions: in vivo
[9] = Drug metabolism in male Beagle dog assessed as fatty acid chain oxidation mediated M+16 metabolite formation by measuring metabolite to parent compound AUC ratio at 1 mg/kg, iv measured after 198 hrs by LC-HRMS analysis; format: ADME, organism-based, Canis lupus familiaris; conditions: in vivo
[10] = Half-life in female Gottingen pig at 1 mg/kg, iv measured after 198 hrs by LC-HRMS analysis; format: ADME, organism-based, Sus scrofa; conditions: in vivo
[11] = Drug metabolism in female Gottingen pig assessed as fatty acid chain oxidation mediated M+16 metabolite formation by measuring metabolite to parent compound AUC ratio at 1 mg/kg, iv measured after 198 hrs by LC-HRMS analysis; format: ADME, organism-based, Sus scrofa; conditions: in vivo
[12] = Induction of mast cell degranulation in human LAD2 cells assessed as beta-hexosaminidase release by measuring 4-methylumbelliferyl N-acetyl-beta-D-glucosaminide hydrolysis incubated for 30 mins by plate reader analysis; format: toxicity, cell-based; conditions: probe 4-methylumbelliferyl N-acetyl-beta-D-glucosaminide
[13] = Induction of mast cell degranulation in human LAD2 cells assessed as beta-hexosaminidase release by measuring maximal efficacy of 4-methylumbelliferyl N-acetyl-beta-D-glucosaminide hydrolysis at 33 uM incubated for 30 mins by plate reader analysis relative to control; format: toxicity, cell-based; conditions: probe 4-methylumbelliferyl N-acetyl-beta-D-glucosaminide

Compound	Activity [1]	EC50 [2]	Emax [3]	EC50 [4]	Emax [5]	half-life [6]	Ratio AUC [7]	half-life [8]	Ratio AUC [9]	half-life [10]	Ratio AUC [11]	EC50 at 30 min [12]	Emax at 0.5 h, 33 µM [13]
CCCC[C@H](NC(=O)CNC(=O)[C@H](CCC(=O)O)NC(=O)C(C)(C)NC(=O)C(C)(C)NC(=O)[C@@H](NC(=O)[C@H](CCCCNC(C)=O)NC(=O)[C@H](C)NC(=O)[C@H](CCCNC(=N)N)NC(=O)[C@@H](NC(=O)[C@H](CCCCN)NC(=O)[C@H](CCC(=O)O)NC(=O)[C@H](CCCNC(=N)N)NC(=O)CNC(=O)[C@H](CCC(=O)O)NC(=O)[C@H](CC(C)C)NC(C)=O)C(C)C)[C@@H](C)CC)C(=O)N[C@@H](CO)C(=O)N[C@H](C(=O)N[C@@H](Cc1c[nH]c2ccccc12)C(=O)N[C@@H](CO)C(=O)NC(C)(C)C(=O)N[C@@H](CCCNC(=N)N)C(=O)N[C@@H](CCCCN)C(=O)N[C@@H](CCCCNC(C)=O)C(N)=O)[C@@H](C)O (Ac-LEGREKVRAK(Ac)I[Aib][Aib]EG[Nle]STWS[Aib]RKK(Ac)-NH2)	Non-toxic	–	–	–	–	–	–	–	–	–	–	–	–
CCCCCCCCCCCCCCCC(=O)N[C@@H](CCC(=O)N[C@@H](CCC(=O)N[C@@H](CCC(=O)NCCOCCOCC(=O)NCCOCCOCC(=O)NCCOCCOCC(=O)NCCCC[C@H](NC(=O)[C@H](CCCCNC(C)=O)NC(=O)[C@H](CCCCN)NC(=O)[C@H](CCCNC(=N)N)NC(=O)C(C)(C)NC(=O)[C@H](CO)NC(=O)[C@H](Cc1c[nH]c2ccccc12)NC(=O)[C@@H](NC(=O)[C@H](CO)NC(=O)[C@H](CCCC)NC(=O)CNC(=O)[C@H](CCC(=O)O)NC(=O)C(C)(C)NC(=O)C(C)(C)NC(=O)[C@@H](NC(=O)[C@H](CCCCNC(C)=O)NC(=O)[C@H](C)NC(=O)[C@H](CCCNC(=N)N)NC(=O)[C@@H](NC(=O)[C@H](CCCCN)NC(=O)[C@H](CCC(=O)O)NC(=O)[C@H](CCCNC(=N)N)NC(=O)CNC(=O)[C@H](CCC(=O)O)NC(=O)[C@H](CC(C)C)NC(C)=O)C(C)C)[C@@H](C)CC)[C@@H](C)O)C(N)=O)C(=O)O)C(=O)O)C(=O)O (Ac-LEGREKVRAK(Ac)I[Aib][Aib]EG[Nle]STWS[Aib]RKK(Ac)K([AEEA-AEEA-AEEA-γGlu-γGlu-γGlu-Palmitoyl])-NH2)	–	1 nM	80%	87 nM	96%	5.7 h	0.025	4.4 h	0.99	12.9 h	0.7	3900 nM	67.2%
CCCCCCCCCCCCCCCCCC(=O)N[C@@H](CCC(=O)N[C@@H](CCC(=O)N[C@@H](CCC(=O)NCCCC[C@H](NC(=O)CCOCCOCCOCCOCCOCCOCCOCCOCCOCCOCCOCCOCCNC(=O)[C@H](CCCCNC(C)=O)NC(=O)[C@H](CCCCN)NC(=O)[C@H](CCCNC(=N)N)NC(=O)C(C)(C)NC(=O)[C@H](CO)NC(=O)[C@H](Cc1c[nH]c2ccccc12)NC(=O)[C@@H](NC(=O)[C@H](CO)NC(=O)[C@H](CCCC)NC(=O)CNC(=O)[C@H](CCC(=O)O)NC(=O)C(C)(C)NC(=O)C(C)(C)NC(=O)[C@@H](NC(=O)[C@H](CCCCNC(C)=O)NC(=O)[C@H](C)NC(=O)[C@H](CCCNC(=N)N)NC(=O)[C@@H](NC(=O)[C@H](CCCCN)NC(=O)[C@H](CCC(=O)O)NC(=O)[C@H](CCCNC(=N)N)NC(=O)CNC(=O)[C@H](CCC(=O)O)NC(=O)[C@H](CC(C)C)NC(C)=O)C(C)C)[C@@H](C)CC)[C@@H](C)O)C(N)=O)C(=O)O)C(=O)O)C(=O)O (Ac-LEGREKVRAK(Ac)I[Aib][Aib]EG[Nle]STWS[Aib]RKK(Ac)[PEG12]K([γGlu-γGlu-γGlu-Stearoyl])-NH2)	Non-toxic	0.6 nM	95%	9 nM	84%	4.3 h	–	–	–	–	–	–	–
